# Reference: ChEMBL document CHEMBL1201862, “PubChem BioAssay data set” (2004)
# The source made the active and inactive calls.
# Key:
# [1] = target: Ion channel NompC (Danio rerio, UniProt Q7T1G6); assay: Fluorescence counterscreen assay for TRPML3 agonists: dose response cell-based high-throughput screening assay to identify agonists of the transient receptor potential channel N1 (TRPN1). [Related pubchem assays: 1526, 1424, 1448 ]; format: functional
# [2] = target: T1, Protein Tat (Human immunodeficiency virus type 1 group M subtype B (isolate HXB2)(HIV-1), UniProt P04608); format: functional;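 note: tat binding to TAR RNA read out by fluorescence polarization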
# T1 sequence (P04608 whole entry): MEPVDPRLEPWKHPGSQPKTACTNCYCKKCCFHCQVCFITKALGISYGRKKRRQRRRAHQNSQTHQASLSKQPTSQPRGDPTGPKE
# [3] = target: T2, Mucolipin-3 (Homo sapiens, UniProt Q8TDD5); assay: Dose response cell-based high-throughput screening assay for agonists of the transient receptor potential channel ML3 (TRPML3). [Related pubchem assays: 1526, 1424, 1448 ]; format: functional
# T2 sequence (Q8TDD5 whole entry): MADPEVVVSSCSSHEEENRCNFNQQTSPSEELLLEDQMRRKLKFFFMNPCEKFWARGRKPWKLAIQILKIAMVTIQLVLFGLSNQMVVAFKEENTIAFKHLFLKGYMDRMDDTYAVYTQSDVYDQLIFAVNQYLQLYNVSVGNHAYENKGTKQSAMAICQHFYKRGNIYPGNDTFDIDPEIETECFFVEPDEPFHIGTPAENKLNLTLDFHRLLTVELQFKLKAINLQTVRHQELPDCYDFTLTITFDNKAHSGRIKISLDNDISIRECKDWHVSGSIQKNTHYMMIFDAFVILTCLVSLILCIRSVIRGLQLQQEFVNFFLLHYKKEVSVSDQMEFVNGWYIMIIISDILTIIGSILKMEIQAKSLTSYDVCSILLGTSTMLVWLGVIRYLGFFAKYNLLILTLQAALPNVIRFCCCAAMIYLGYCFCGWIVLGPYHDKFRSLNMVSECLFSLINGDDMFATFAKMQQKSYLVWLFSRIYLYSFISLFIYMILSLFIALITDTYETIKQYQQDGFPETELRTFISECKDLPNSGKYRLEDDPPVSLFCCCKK
# [4] = test system: HEK293; assay: cells; format: functional, cell-based; settings: Homo sapiens
# [5] = test system: HEK293; assay: cells; format: functional, cell-based; settings: Homo sapiens; remark: listed apart in the source
# [6] = cells; format: functional, cell-based
# [7] = Luminescence Cell-Based Dose Response HTS to Identify Inhibitors of 5'UTR Stem-Loop Driven Prion Protein mRNA Translation in H4 Neuroglioblastoma Cells. [Related pubchem assays: 1827 (Project Summary), 1813 (Primary HTS)]; format: functional
# [8] = test system: HEK293; assay: inhibition of NOD1-driven NF-kB reporter – cell-based, luminescence, uHTS, primary screen (AID 1578); format: functional; settings: Homo sapiens
# [9] = luciferase reporter signal reduction – luminescence, H4-C neuroglioblastoma cells, dose response (AID 2458); format: functional, cell-based;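 note: H4 neuroglioblastoma cells stably carrying a luciferase reporter gene fusion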
# [10] = luciferase reporter signal suppression in cells – H4 neuroglioma cells, luminescence, dose response (AID 1990); format: functional, cell-based
# [11] = alpha-synuclein stem-loop luciferase translation blockers – H4 neuroglioma cells, luminescence, confirmation (AID 1988); format: functional, cell-based
# [12] = alpha-synuclein stem-loop translation blockers – luminescence, H4 neuroglioblastoma cells, dose confirmation, confirmation (AID 2454); format: functional, cell-based;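 note: H4 neuroglioblastoma cells carrying an alpha-synuclein 5'UTR luciferase reporter; potency for inhibition of the luciferase signal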
# [13] = test system: HEK293; assay: cells; format: functional, cell-based; settings: Homo sapiens; remark: listed apart in the source
# [14] = test system: HEK293; assay: NOD2 signaling inhibitors in MDP-stimulated cells, cell-based, uHTS, luminescence (AID 2001); format: functional; settings: Homo sapiens
# [15] = target: Nucleotide-binding oligomerization domain-containing protein 2 (Homo sapiens, UniProt Q9HC29); assay: inhibition of NOD2-driven NF-kB reporter – cell-based, luminescence, uHTS, HEK293 (AID 1566); format: functional
# Chain of Nucleotide-binding oligomerization domain-containing protein 2 (Q9HC29 whole entry, the tested form may be a part): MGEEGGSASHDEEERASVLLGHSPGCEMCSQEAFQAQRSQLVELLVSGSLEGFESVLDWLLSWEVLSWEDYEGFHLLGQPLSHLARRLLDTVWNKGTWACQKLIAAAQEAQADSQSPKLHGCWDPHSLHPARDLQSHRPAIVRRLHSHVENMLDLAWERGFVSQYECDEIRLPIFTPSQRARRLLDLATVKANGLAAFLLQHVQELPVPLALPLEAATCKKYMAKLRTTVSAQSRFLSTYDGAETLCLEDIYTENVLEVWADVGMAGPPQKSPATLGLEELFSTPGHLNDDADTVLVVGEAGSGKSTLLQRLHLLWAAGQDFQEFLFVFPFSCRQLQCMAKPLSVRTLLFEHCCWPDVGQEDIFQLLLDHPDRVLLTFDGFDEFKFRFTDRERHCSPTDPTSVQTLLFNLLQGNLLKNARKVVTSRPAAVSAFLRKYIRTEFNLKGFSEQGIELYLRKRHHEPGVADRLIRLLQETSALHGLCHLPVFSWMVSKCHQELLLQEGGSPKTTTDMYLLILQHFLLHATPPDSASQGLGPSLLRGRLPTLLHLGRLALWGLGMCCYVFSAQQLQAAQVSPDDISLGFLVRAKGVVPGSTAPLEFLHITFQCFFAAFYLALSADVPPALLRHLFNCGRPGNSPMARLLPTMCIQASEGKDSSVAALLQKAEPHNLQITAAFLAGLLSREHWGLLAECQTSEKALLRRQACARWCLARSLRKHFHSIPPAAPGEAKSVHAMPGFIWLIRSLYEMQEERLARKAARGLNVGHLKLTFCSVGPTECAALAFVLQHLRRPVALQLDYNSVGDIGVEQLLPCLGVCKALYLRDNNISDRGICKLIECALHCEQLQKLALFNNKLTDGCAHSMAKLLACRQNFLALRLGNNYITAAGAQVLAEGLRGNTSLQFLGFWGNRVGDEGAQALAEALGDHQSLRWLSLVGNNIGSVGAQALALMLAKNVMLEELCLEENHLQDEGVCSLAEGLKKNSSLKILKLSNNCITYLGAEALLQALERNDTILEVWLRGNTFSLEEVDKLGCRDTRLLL
# [16] = target: Estrogen receptor beta (Homo sapiens, UniProt Q92731); assay: blockers of SRC-3 recruitment to ERβ – biochemical, ELISA, streptavidin-HRP readout, orthogonal assay, confirmation (AID 1060)
# Chain of Estrogen receptor beta (Q92731 whole entry): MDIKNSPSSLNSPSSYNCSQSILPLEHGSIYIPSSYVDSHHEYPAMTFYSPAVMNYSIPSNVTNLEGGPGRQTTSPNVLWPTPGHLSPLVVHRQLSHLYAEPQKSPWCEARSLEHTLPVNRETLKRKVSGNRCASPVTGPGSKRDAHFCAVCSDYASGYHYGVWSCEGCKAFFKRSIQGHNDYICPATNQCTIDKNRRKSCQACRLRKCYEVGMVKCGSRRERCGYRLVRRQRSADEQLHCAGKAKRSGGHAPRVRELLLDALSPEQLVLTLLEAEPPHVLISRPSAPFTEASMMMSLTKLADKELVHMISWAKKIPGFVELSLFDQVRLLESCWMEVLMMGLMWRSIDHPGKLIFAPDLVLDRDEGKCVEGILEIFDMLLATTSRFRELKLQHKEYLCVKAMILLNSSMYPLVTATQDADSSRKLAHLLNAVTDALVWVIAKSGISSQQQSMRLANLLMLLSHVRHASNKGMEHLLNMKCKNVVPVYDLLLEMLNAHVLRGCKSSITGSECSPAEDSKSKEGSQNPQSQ
# [17] = NIH-3T3 fibroblast cytotoxicity, dose response, cytotoxicity control, cell-based, fluorescence, Alamar Blue, secondary assay (AID 2327); format: functional;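 note: NIH-3T3 mouse fibroblasts cultured with fluconazole at 8 µg/mL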
# [18] = cells
# [19] = target: Large T antigen (Simian virus 40, UniProt P03070); format: functional, Betapolyomavirus macacae;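 note: Confirmatory-stage PubChem screen for compounds that inhibit SV40 T antigen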
# Chain of Large T antigen (P03070 whole entry): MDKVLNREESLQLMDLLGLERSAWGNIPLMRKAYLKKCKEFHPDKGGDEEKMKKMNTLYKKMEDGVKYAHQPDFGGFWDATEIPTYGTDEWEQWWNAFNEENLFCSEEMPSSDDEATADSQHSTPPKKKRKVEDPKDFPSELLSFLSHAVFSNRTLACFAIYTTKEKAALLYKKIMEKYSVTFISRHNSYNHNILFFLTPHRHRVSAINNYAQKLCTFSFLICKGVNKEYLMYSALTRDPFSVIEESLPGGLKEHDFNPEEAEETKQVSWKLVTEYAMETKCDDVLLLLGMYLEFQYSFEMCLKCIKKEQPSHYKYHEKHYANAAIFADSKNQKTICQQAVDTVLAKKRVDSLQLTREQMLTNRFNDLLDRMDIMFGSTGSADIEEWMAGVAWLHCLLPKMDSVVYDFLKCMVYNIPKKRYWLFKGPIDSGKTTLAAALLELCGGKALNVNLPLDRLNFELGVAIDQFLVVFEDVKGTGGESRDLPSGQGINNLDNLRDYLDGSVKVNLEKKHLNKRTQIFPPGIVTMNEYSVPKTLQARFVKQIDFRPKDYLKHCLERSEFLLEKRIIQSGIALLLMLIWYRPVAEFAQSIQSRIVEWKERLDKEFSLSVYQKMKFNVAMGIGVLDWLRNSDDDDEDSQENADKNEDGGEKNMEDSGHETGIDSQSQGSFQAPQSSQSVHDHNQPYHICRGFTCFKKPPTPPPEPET
# [20] = fluconazole-exposed Candida albicans growth modulators – fluorescence, retest, confirmation (AID 2467); format: functional, cell-based
# [21] = Trypanosoma cruzi growth suppression in host cells – NIH3T3 host cells, beta-gal luminescence, confirmation (AID 2044); format: functional, cell-based;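 note: intracellular parasites grown in NIH/3T3 mouse fibroblasts as host cells; luminescent beta-galactosidase reporter signal from transgenic T. cruzi replicating inside host cells; inhibitors lower the luminescence signal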
# [22] = target: T3, Short transient receptor potential channel 4 (Mus musculus, UniProt Q9QUQ5); assay: block of DAMGO-driven TRPC4 calcium entry – cell-based, HEK293 TRPC4/mu-opioid, Fluo-4 calcium, dose response (AID 434942); format: functional;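 note: potency of inhibitors blocking the TRPC4 calcium response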
# T3 sequence (Q9QUQ5 whole entry): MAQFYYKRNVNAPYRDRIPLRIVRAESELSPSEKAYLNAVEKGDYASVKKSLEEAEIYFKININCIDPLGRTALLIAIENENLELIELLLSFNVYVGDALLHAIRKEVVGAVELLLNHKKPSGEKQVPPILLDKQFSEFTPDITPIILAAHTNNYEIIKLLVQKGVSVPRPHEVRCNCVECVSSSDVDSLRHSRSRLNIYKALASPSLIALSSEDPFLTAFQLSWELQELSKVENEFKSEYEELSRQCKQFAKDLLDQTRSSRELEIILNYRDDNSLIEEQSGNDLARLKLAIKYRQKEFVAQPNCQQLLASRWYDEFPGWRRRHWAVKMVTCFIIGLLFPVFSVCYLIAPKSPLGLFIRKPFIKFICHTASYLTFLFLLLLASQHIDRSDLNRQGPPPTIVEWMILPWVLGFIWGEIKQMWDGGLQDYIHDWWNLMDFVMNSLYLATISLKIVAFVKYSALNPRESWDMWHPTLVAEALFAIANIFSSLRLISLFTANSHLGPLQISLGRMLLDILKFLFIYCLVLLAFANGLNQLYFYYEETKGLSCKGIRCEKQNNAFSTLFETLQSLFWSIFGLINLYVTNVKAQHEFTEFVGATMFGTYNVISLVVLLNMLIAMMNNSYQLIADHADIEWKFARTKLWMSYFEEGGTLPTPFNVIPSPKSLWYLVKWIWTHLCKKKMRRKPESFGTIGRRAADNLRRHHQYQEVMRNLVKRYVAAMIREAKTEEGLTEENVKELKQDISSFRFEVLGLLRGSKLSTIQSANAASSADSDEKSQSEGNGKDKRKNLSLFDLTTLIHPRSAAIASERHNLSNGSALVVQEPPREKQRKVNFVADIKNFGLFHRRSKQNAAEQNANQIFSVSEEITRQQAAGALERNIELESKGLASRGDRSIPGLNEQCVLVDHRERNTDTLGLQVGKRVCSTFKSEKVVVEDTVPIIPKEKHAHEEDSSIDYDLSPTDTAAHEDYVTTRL
# [23] = NIH3T3 cell viability loss – ATP luminescence, mouse fibroblasts, counter-screen, dose response (AID 2010); format: functional, cell-based;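 note: cells exposed to compound for about 90 hours before reading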
# [24] = toxicity toward HepG2 liver cells – cell-based, plate reader, cherry-pick, antagonist series, cytotoxicity control, dose response (AID 743416); format: functional
# [25] = blockade of melanocortin 4 receptor signaling – cell-based, plate reader, cherry pick, counter-screen for LGR2 antagonist project, dose response (AID 743444); format: functional;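 note: transfected HEK 293 cells stimulated with alpha-MSH peptide; potency of inhibitors of the alpha-MSH evoked signal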
# [26] = A549 cell cytotoxicity, dose response, cytotoxicity control, plate reader, cherry-pick, antagonist series (AID 743412); format: functional, cell-based
# [27] = test system: INS1; assay: INS-1E survival protection against cytokine death – cell-based, luminescence, retest, dose response (AID 449756); format: functional; settings: Rattus norvegicus;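 note: cell death triggered by IL-1 beta plus TNF-alpha plus IFN-gamma mixture; protective hits raise ATP signal compared with cytokine alone wells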
# [28] = blockers of bursicon-stimulated LGR2 cAMP reporter – cell-based, HEK293, CRE-luciferase reporter, cherry pick, set 2, dose response (AID 743343); format: functional;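 note: transfected cells were stimulated with diluted bursicon conditioned medium after compound addition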
# [29] = target: T4, Aminopeptidase N (Plasmodium falciparum FcB1/Columbia, UniProt O96935); assay: malaria alanyl aminopeptidase activity blockers – biochemical, fluorogenic H-Leu-NHMec substrate, 1536-well (AID 1445); set-up: species or system Plasmodium falciparum 3D7, 3D7
# T4 sequence (O96935 whole entry): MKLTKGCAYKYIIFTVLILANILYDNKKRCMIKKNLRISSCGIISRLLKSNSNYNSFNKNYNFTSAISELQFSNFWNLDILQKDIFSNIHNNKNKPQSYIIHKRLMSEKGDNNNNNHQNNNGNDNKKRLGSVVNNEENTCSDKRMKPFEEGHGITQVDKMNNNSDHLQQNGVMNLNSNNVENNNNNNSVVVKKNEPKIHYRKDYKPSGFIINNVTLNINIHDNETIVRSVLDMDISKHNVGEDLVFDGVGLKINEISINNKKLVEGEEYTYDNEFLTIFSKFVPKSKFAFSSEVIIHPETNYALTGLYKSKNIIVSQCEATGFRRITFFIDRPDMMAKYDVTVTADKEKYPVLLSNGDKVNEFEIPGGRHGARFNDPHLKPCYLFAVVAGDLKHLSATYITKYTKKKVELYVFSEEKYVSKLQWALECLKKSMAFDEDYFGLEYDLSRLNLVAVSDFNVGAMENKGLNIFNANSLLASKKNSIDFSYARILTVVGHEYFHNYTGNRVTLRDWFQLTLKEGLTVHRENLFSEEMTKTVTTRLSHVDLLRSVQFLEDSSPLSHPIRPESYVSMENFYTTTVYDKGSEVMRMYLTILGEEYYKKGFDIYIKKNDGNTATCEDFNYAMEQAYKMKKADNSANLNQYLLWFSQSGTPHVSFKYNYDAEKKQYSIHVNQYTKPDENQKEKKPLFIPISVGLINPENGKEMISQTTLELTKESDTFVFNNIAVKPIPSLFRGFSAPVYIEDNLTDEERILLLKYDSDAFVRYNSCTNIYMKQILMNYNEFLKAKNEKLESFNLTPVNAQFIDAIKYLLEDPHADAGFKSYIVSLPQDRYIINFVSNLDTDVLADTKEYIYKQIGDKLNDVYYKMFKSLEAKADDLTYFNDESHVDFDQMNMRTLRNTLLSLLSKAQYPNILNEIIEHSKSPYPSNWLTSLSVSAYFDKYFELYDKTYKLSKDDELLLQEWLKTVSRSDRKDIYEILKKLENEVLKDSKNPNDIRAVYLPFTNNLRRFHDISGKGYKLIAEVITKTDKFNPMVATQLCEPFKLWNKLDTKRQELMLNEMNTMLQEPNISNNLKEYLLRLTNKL
# Chain of Ion channel NompC (Q7T1G6 whole entry): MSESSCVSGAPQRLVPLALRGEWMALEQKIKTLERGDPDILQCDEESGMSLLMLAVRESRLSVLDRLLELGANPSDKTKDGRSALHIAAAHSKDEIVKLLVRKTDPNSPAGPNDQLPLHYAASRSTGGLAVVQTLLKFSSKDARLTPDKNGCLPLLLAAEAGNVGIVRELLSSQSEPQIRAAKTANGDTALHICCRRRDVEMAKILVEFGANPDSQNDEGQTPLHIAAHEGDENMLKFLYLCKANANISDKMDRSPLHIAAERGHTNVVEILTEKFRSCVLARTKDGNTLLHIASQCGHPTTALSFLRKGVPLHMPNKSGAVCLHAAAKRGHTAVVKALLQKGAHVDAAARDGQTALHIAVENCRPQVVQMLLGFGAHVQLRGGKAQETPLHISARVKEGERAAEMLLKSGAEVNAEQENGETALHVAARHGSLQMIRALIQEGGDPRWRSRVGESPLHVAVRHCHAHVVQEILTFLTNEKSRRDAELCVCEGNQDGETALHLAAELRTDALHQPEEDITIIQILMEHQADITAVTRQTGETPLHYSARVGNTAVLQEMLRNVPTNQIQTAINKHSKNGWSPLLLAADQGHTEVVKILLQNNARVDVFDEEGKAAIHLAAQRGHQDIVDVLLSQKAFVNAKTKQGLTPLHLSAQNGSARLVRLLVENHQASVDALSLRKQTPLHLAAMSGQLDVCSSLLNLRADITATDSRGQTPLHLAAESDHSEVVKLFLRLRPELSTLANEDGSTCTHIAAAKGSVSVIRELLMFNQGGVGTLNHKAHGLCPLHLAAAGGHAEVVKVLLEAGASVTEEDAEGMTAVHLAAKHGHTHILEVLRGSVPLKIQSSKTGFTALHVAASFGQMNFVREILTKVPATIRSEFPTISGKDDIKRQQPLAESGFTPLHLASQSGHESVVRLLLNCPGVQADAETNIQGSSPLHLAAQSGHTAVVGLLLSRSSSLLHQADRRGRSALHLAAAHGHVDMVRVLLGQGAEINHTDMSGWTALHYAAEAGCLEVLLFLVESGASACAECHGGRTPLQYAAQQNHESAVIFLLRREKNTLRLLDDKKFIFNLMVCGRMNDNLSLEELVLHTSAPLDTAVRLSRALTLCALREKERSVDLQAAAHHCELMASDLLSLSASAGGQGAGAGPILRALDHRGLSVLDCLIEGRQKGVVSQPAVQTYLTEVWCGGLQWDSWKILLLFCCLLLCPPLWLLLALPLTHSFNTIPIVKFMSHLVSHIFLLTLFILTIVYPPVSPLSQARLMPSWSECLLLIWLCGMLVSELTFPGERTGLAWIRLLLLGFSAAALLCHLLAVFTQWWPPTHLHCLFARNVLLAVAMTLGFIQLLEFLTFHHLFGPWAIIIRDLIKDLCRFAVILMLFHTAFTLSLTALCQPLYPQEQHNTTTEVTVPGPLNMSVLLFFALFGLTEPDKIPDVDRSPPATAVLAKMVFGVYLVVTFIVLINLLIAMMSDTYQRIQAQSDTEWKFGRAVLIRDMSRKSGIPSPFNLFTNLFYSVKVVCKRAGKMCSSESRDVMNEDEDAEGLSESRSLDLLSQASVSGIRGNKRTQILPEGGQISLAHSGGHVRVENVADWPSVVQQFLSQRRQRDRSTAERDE
structure (smiles),measurement,setting,value
Cc1cc(C(C)c2ccccc2)c(O)c(CN2CCOCC2)c1C (centres undefined),EC50,[1],> 29.9 µM (not active)
same,IC50,[2],> 100 µM (active)
same,EC50,[3],5.07 µM (active)
O=C(C1=C(O)C(=O)N(c2nccs2)C1c1ccccc1)c1ccc2c(c1)OCCO2 (centres undefined),IC50,[4],> 20 µM (inactive)
same,IC50,[5],> 20 µM (inactive)
same,EC50,[6],1.11 µM (active)
same,EC50,[7],< 0.1 µM (active)
same,EC50,[8],11.5 µM (active)
same,EC50,[9],4.2 µM (active)
same,EC50,[10],0.146 µM (active)
same,EC50,[11],7.17 µM (active)
same,EC50,[12],1.93 µM (active)
same,IC50,[13],> 20 µM (inactive)
same,IC50,[14],18.6 µM (inactive)
same,EC50,[15],5.45 µM (active)
CN1CCN(CC(=O)Nc2sc3c(c2C#N)CCCC3)CC1,IC50,[16],15 µM (not active)
CCCC[n+]1c2ccccc2cc2ccccc21,EC50,[17],> 150 µM (inactive)
same,EC50,[18],0.041 µM (active)
same,IC50,[19],42.4 µM (active)
same,EC50,[20],0.604 µM (active)
same,EC50,[21],< 0.1 µM (active)
same,EC50,[22],4.22 µM (active)
same,EC50,[23],> 60 µM (not active)
O=C(CN1C(=O)c2ccccc2S1(=O)=O)c1ccc(F)cc1,EC50,[6],1.87 µM (active)
same,EC50,[7],< 0.1 µM (active)
same,AC50,[24],> 52 µM (inactive)
same,EC50,[9],1.12 µM (active)
same,AC50,[25],3.02 µM (active)
same,EC50,[10],11.4 µM (active)
same,EC50,[11],5.89 µM (active)
same,EC50,[12],2.32 µM (active)
same,AC50,[26],> 52 µM (inactive)
same,AC50,[27],> 260 µM (inactive)
same,AC50,[28],2.75 µM (active)
O=C(NN1C(=O)c2ccccc2NC1c1ccco1)c1ccccc1 (centres undefined),IC50,[29],61.3 µM (active)
COc1ccc(N(C)S(=O)(=O)c2ccc(C)cc2)c([N+](=O)[O-])c1,EC50,[1],> 29.9 µM (not active)
same,EC50,[3],3.13 µM (active)
O=S(=O)(c1ccccc1)C1(S(=O)(=O)c2ccccc2)CCCC1,EC50,[1],> 29.9 µM (not active)
same,EC50,[3],5.62 µM (active)
